From patent US20020123485A1, “Epoxy steroidal aldosterone antagonist and beta-adrenergic antagonist combination therapy for treatment of congestive heart failure” (priority 2000, published 2002)

Tests used:
progesterone receptor = biological target: T1, progesterone receptor (Homo sapiens, UniProt P06401); assay: binding affinity for the progesterone receptor relative to spironolactone
T1 sequence (P06401 1-933): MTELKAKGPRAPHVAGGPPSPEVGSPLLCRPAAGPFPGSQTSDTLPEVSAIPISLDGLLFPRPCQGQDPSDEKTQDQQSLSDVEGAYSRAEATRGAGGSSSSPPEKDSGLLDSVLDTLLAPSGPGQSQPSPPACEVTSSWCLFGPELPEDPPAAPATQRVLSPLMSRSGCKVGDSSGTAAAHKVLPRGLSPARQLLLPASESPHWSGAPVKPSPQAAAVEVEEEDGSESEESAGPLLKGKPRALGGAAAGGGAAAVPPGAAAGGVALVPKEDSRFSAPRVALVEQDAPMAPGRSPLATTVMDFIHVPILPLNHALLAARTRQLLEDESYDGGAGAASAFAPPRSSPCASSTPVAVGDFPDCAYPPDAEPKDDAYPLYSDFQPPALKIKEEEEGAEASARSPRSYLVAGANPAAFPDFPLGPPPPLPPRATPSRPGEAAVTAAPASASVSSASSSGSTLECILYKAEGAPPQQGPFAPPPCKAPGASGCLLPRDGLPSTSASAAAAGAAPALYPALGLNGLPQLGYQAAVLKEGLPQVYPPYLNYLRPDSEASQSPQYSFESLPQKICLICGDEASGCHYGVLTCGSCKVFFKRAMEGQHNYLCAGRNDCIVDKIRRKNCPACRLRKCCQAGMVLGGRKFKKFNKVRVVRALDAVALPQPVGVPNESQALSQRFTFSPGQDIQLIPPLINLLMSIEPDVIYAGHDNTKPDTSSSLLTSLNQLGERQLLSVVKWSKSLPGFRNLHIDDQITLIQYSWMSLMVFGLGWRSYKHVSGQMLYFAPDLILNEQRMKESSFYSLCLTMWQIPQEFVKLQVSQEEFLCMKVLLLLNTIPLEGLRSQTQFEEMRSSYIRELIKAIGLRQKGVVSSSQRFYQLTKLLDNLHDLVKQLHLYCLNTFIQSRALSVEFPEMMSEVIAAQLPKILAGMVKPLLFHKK

[1] = system: patients with mild to moderate hypertension; assay: Example 19 clinical study: eplerenone versus placebo co-administered with a calcium-channel blocker; format: in vivo, human
Source text: This multicenter, randomized, double-blind, placebo-controlled, placebo run-in, parallel group trial involving a minimum of 120 randomized patients with hypertension (seated diastolic blood pressure [seDBP] ≧95 mmHg and <110 mmHg and seated systolic BP [seSBP] <180 mmHg while taking a CCB) will consist of a one- to two-week pretreatment screening period followed by a two- to four-week single-blind placebo run-in period and an 8-week double-blind treatment period. Eligible patients will be patients currently receiving a CCB as part of their antihypertensive medication. […] The dose will not be changed for patients with adequate BP control. […] If the dose has been increased at Week 2, the patient will be reassessed at Week 6. […] If BP is uncontrolled at Week 6 and the dose has been increased at Week 2 or Week 4, the patient must be withdrawn from the study. If symptomatic hypotension (i.e., lightheadedness, dizziness, or syncope associated with low BP) occurs at any time during the study, or if DBP is ≧110 mmHg or SBP is ≧180 mmHg at any time during the trial, the patient must be withdrawn. Patients will receive study medication for a total of 8 weeks.
The study will consist of a one- to two-week pretreatment screening period followed by a two- to four-week single-blind placebo run-in treatment period, prior to randomization to an eight-week double-blind treatment period.
Eligible patients will be either currently receiving a CCB alone, or receiving a CCB as part of their antihypertensive medication. […] The dose will not be changed for patients with adequate BP control. […] If the dose has been increased at Week 2, the patient will be reassessed at Week 6. The dose of study medication will not be changed for patients with adequate BP control. […] If BP is uncontrolled at Week 6 and the dose has been increased at Week 2 or Week 4, the patient must be withdrawn from the study. The dose of study medication will not be changed for patients with adequate BP control. If symptomatic hypotension (i.e., lightheadedness, dizziness, or syncope associated with low BP) occurs at any time during the study, or if DBP is ≧110 mmHg or SBP is ≧180 mmHg at any time during the study, the patient must be withdrawn. Patients will receive study medication for a total of eight weeks.
Patients will return to the clinic for evaluations at Weeks 0, 2, 4, 6, 8, and 9. Heart rate, BP, adverse events and concomitant medication will be assessed at each visit. Hematology and biochemistry evaluations and urinalysis for safety will be at Weeks 0, 8, and 9. Serum potassium levels will be determined at Weeks 0, 2, 4, 6, 8, and 9. Plasma renin, serum aldosterone, and plasma cortisol will be determined at Weeks 0 and 8. A 12-lead electrocardiogram and physical examination will be done at screening and at Week 9.
All randomized patients with at least one post-baseline assessment will be included in the efficacy analysis (intent-to-treat population). In each analysis, missing values will be imputed using the last observation carried forward (LOCF) method. The analysis of safety will focus on all randomized patients who took at least one dose of study medication (safety population).
BP evaluations will be analyzed at each visit using two-way analysis of covariance (ANCOVA) with the baseline measurement as the covariate and treatment and center as factors. The response variable will be the change from baseline. […]

[2] = system: rats made hypertensive by renal artery clip; assay: Assay C: hypertensive rat model; format: in vivo; details: combination of beta-adrenergic antagonist and eplerenone versus either component alone; 12 and 24 weeks
Source text: Male rats are made hypertensive by placing a silver clip with an aperture of 240 microns on the left renal artery, leaving the contralateral kidney untouched. Sham controls undergo the same procedure but without attachment of the clip. One week prior to the surgery, animals to be made hypertensive are divided into separate groups and drug treatment is begun. […] After 12 and 24 weeks, systolic and diastolic blood pressure, left ventricular end diastolic pressure, left ventricular dP/dt, and heart rate are evaluated. The hearts are removed, weighed, measured and fixed in formalin. Collagen content of heart sections are evaluated using computeried image analysis of picrosirius stained sections.

[3] = system: rats with ligated left anterior descending coronary artery; assay: Assay D: myocardial infarction rat model; format: in vivo; details: combination of beta-adrenergic antagonist and eplerenone versus either component alone; six weeks
Source text: Male rats are anesthetized and the heart is exteriorized following a left sided thoracotomy. The left anterior descending coronary artery is ligated with a suture. The thorax is closed and the animal recovers. Sham animals have the suture e passed through without ligation. One week prior to the surgery, animals to undergo infarction are divided into separate groups and drug treatment is begun. […] After six weeks, systolic and diastolic blood pressure, left ventricular end diastolic pressure, left ventricular dP/dt, and heart rate are evaluated. The hearts are removed, weighed, measured and fixed in formalin. Collagen content of heart sections are evaluated using computerized image analysis of picrosirius stained sections.

[4] = system: myocardial fibrosis in animal models; details: cited from earlier work
[5] = CCB and eplerenone compared to CCB and placebo
[6] = eight weeks, eplerenone and CCB versus CCB and placebo

SMILES | binding affinity for the progesterone receptor, % that of spironolactone (progesterone receptor) | active renin levels [1, 5] | aldosterone levels [1, 5] | change in mean diastolic blood pressure [1, 6] | systolic blood pressure [1, 6] | serious adverse events ([1]; eplerenone added to CCB therapy) | cardiac performance [2] | cardiac performance [3] | myocardial fibrosis [4]
COC(=O)[C@@H]1CC2=CC(=O)CC[C@]2(C)[C@@]23O[C@@H]2C[C@@]2(C)[C@@H](CC[C@@]24CCC(=O)O4)[C@H]13 [eplerenone, Pregn-4-ene-7,21-dicarboxylic acid, 9,11-epoxy-17-hy-droxy-3-oxo-, γ-lactone, methyl ester, (7α, 11α, 17β)-] | less than 1% | greater increase | greater increase | greater for the dual therapy group, compared to monotherapy, but this difference did not reach statistical significance | significant reduction | no serious adverse events reported | improvments in cardiac performance | improvements in cardiac performance | –
CC(=O)S[C@@H]1CC2=CC(=O)CC[C@]2(C)[C@H]2CC[C@@]3(C)[C@@H](CC[C@@]34CCC(=O)O4)[C@H]12 [spironolactone] | – | – | – | – | – | – | – | – | prevents myocardial fibrosis
